Patent US10450279B2 (priority 2014, dated 2019)

How the values were obtained:
Assay type in all cases: cell-based
Conditions in all cases: relative growth vs active compound-free control (100%), 405 nm, 7 days after inoculation
Septoria tritici = assay: Activity against leaf blotch on wheat caused by Septoria tritici (Septtr), microtiterplate test
Pyricularia oryzae = tested on: Pyricularia oryzae
Botrytis cinerea = assay: Activity against the grey mold Botrytis cinerea in the microtiterplate test (Botrci)

Structure (SMILES)	Growth (%) at 8 ppm Septtr (Septoria tritici)	Growth (%) at 31 ppm Pyrior (Pyricularia oryzae)	Growth (%) at 31 ppm Botrci (Botrytis cinerea)
CC(O)(Cn1cncn1)c1ccc(Oc2ccc(Cl)cc2)cc1C(F)(F)F (stereo not drawn) [compound 24]	0%	0%	0%
CC(O)(Cn1cncn1)c1ccc(Oc2ccc(Cl)cc2Cl)cc1C(F)(F)F (stereo not drawn) [compound 25]	0%	2%	3%
CC(O)(Cn1cncn1)c1ccc(Oc2ccccc2C(F)(F)F)cc1C(F)(F)F (stereo not drawn) [compound 26]	1%		
CC(O)(Cn1cncn1)c1ccc(Oc2ccc(C(F)(F)F)cc2)cc1C(F)(F)F (stereo not drawn) [compound 27]	0%	1%	18%
CC(O)(Cn1cncn1)c1ccc(Oc2ccc(F)cc2)cc1C(F)(F)F (stereo not drawn) [compound 28]	0%	7%	0%
CC(O)(Cn1cncn1)c1ccc(Oc2ccc(F)cc2F)cc1C(F)(F)F (stereo not drawn) [compound 29]	5%	0%	0%
CC(O)(Cn1cncn1)c1ccc(Oc2ccc(Cl)cc2)cc1Cl (stereo not drawn) [compound 31]	0%	2%	3%
CC(O)(Cn1cncn1)c1ccc(Oc2ccc(Cl)cc2Cl)cc1Cl (stereo not drawn) [compound 32]	12%	3%	9%
CC(O)(Cn1cncn1)c1ccc(Oc2ccc(F)cc2)cc1Cl (stereo not drawn) [compound 33]	1%	0%	0%
CC(O)(Cn1cncn1)c1ccc(Oc2ccc(F)cc2F)cc1Cl (stereo not drawn) [compound 34]	0%	0%	1%
CC(O)(Cn1cncn1)c1ccc(Oc2ccccc2C(F)(F)F)cc1Cl (stereo not drawn) [compound 35]	0%	1%	1%
CC(O)(Cn1cncn1)c1ccc(Oc2ccc(C(F)(F)F)cc2)cc1Cl (stereo not drawn) [compound 36]		14%	
OC(Cn1cncn1)(c1ccc(Oc2ccc(F)cc2)cc1Cl)C1CC1 (stereo not drawn) [compound 37]	0%	1%	1%
OC(Cn1cncn1)(c1ccc(Oc2ccccc2C(F)(F)F)cc1Cl)C1CC1 (stereo not drawn) [compound 38]	1%	1%	2%
OC(Cn1cncn1)(c1ccc(Oc2ccc(Cl)cc2Cl)cc1Cl)C1CC1 (stereo not drawn) [compound 39]	14%	2%	0%
OC(Cn1cncn1)(c1ccc(Oc2ccc(C(F)(F)F)cc2)cc1Cl)C1CC1 (stereo not drawn) [compound 40]	2%	1%	8%
OC(Cn1cncn1)(c1ccc(Oc2ccc(F)cc2F)cc1Cl)C1CC1 (stereo not drawn) [compound 41]	0%	0%	1%
OC(Cn1cncn1)(c1ccc(Oc2ccc(Cl)cc2)cc1Cl)C1CC1 (stereo not drawn) [compound 42]	0%	1%	3%
CC(C)(C)C(O)(Cn1cncn1)c1ccc(Oc2ccc(Cl)cc2)cc1 (stereo not drawn) [compound 43]	0%		3%
CC(C)(C)C(O)(Cn1cncn1)c1ccc(Oc2ccc(F)cc2)cc1 (stereo not drawn) [compound 44]	0%	0%	1%
CC(C)(C)C(O)(Cn1cncn1)c1ccc(Oc2ccc(F)cc2F)cc1 (stereo not drawn) [compound 45]	0%	1%	0%
CC(C)(C)C(O)(Cn1cncn1)c1ccc(Oc2ccc(Cl)cc2Cl)cc1 (stereo not drawn) [compound 46]	4%	2%	6%
CC(C)(C)C(O)(Cn1cncn1)c1ccc(Oc2ccccc2C(F)(F)F)cc1 (stereo not drawn) [compound 47]	0%	1%	15%
CC(C)(C)C(O)(Cn1cncn1)c1ccc(Oc2ccc(C(F)(F)F)cc2)cc1 (stereo not drawn) [compound 48]	0%	1%	
CCC(O)(Cn1cncn1)c1ccc(Oc2ccc(Cl)cc2)cc1Cl (stereo not drawn) [compound 49]	3%	1%	2%
CCC(O)(Cn1cncn1)c1ccc(Oc2ccc(F)cc2)cc1Cl (stereo not drawn) [compound 50]	0%	9%	2%
CCC(O)(Cn1cncn1)c1ccc(Oc2ccc(F)cc2F)cc1Cl (stereo not drawn) [compound 51]	0%	0%	0%
CCC(O)(Cn1cncn1)c1ccc(Oc2ccc(Cl)cc2Cl)cc1Cl (stereo not drawn) [compound 52]	0%	1%	3%
CCC(O)(Cn1cncn1)c1ccc(Oc2ccccc2C(F)(F)F)cc1Cl (stereo not drawn) [compound 53]	0%	2%	3%
CCC(O)(Cn1cncn1)c1ccc(Oc2ccc(C(F)(F)F)cc2)cc1Cl (stereo not drawn) [compound 54]	0%	2%	4%
